Columns and labels:
Type in all cases: cell-based
[1] = system: γ-H2AX foci; experiment: γ-H2AX foci clearance after damage; conditions: 2.5 μM/L YW-1842, cells after IR
Experimental: FIGS. 6F-6G show TRDMT1 inhibitor YW-1842 delays the repair of DSBs at the transcribed genome. (FIG. 6F) U2OS or MCF7 cells were treated with or without compound YW-1842 at the indicated concentration. […]
Cells for immunofluorescence observation were fixed in 4% PFA (Affymetrix, 19943 1 LT) at room temperature for 15 min and further treated with 0.2% triton for 10 min. They were then blocked by 3% BSA (SIGMA, A-7030) at room temperature for 1 h. Primary antibody for RAD51(ab63801, Abcam, 1:200)), RAD52(sc-365341, Santa Cruz, CA, USA, 1:500), TRIM28 (ab10484, Abcam, 1:500), γH2AX ser139 (JBW301, 05-636, EMD Millipore, 1:200), were incubated with cells at 4° C. overnight. After washing with 0.05% PBS-Tween (PBST), the cells were incubated with secondary antibody for 1 h at room temperature.

[2] = system: U2OS (DR-GFP) cells; experiment: DR-GFP HR reporter assay; conditions: 2.5 μM/L, 6 h pre-treatment, versus DMSO
Experimental: (§1) FIGS. 6A-6E show TRDMT1 Inhibitors specifically sensitizes cells to DNA damage agents. (FIG. 6A) SCE WT cells were transfected with TA-KR and were cultured with 2.5 μM/L compound YW-1842 or not for 6 hours, m^5C (n=3, 50 cells per replicated, Mean±SD) was stained and quantified. DR-GFP (FIG. 6B) or EJ5-GFP (FIG. 6C) cells were pre-treated with 2.5 μM/L compound YW-1842 for 6 h or TRDMT1 siRNA for 48 h, or DMSO. Then the cells were transfected with NLS-I-SceI plasmid to induce DSB. The efficiency of HR (FIG. 6B) or NHEJ (FIG. 6C) was analyzed by flow-cytometry (n=3, Mean f SD). (FIG. 6D) After seeding, MCF-7, HCC1954, and HCC1937 cells were pre-treated with or without 2.5 μM/L compound YW-1842 for 6 h, then cultured with chemotherapy drugs (1 μM/L Cisplatin; 1 μM/L ATRi AZ20; […]; 1 μM/L PARPi Olaparib for 10 days. The survival rate of these cells was analyzed (n=3, Mean±SD). (FIG. 6E) TRDMT1 KO U2OS cells were transfected with GFP-TRDMT1^WT or GFP-TRDMT1^G155V with or without 2.5 μM/L compound YW-1842, the survival rate of these cells after IR or Cisplatin was shown (n=3, Mean±SD).
(§2) Using a previously described method[Lan, L. et al. The ACF1 complex is required for DNA double-strand break repair in human cells. […] The GFP signal arising from the recombination (HR) or non-homologous end joining (NHEJ) events were measured by flow cytometry.

[3] = system: U2OS (EJ5-GFP) cells; experiment: EJ5-GFP NHEJ reporter assay; conditions: 2.5 μM/L, 6 h pre-treatment, TRDMT1 wild type cells
Experimental: as §1, §2

[4] = system: TRDMT1 KO U2OS cells; experiment: Cell survival assay in TRDMT1 KO cells after IR or Cisplatin; conditions: 2.5 μM/L
Experimental: as §1
Approximately 500 U2OS/TRDMT1 KO U2OS/MCF-7/HCC1954/HCC1937 cells and TRDMT1 siRNA or GFP-TRDMT1 WT/G155V/K251R transfected cells were seeded in 6 cm dish with or without TRDMT1 inhibitors (2.5 μM/L). […]

Question: Which “DNA repair efficiency, clearance of γ-H2AX foci” value [1] does the source give for `COc1cc2nc(-n3cc(-c4ccc(S(C)(=O)=O)cc4)cn3)nc(-c3ccsc3)c2cc1OC` [YW-1842, 6,7-dimethoxy-2-(4-(4-(methylsulfonyl)phenyl)-1H-pyrazol-1-yl)-4-(thiophen-3-yl)quinazoline] here?
Answer: delayed clearance of γ-H2AX foci

Question: And the “HR-mediated repair of I-SceI-generated DSBs (DR-GFP)” value [2]?
Answer: diminished the repair of I-SceI-generated DSBs

Question: And the “non-homologous end joining (NHEJ) efficiency” value [3]?
Answer: no obvious changes

Question: And the “sensitization of TRDMT1 KO cells to IR or Cisplatin” value [4]?
Answer: does not sensitize TRDMT1 KO

— US12667568B2, “Compositions and methods for the treatment and diagnosis of cancer” (The General Hospital Corporation, priority 2020, dated 2026)
